From PubChem BioAssay (NCI) come the findings set out here.

Several values for one entry are separate records, joined by “and”; a condition that tells them apart may be missing. Equal values may be shown once.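 Grown in 96-well plates, cells were treated for 48 hours with each compound at five concentrations. Insufficient inhibition: endpoint recorded as highest concentration tested. GI50: concentration for 50% inhibition of growth. TGI denotes the concentration required for complete inhibition of growth.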 Some results are limits rather than exact numbers.

Common to all, as to assay: inhibition of tumour cell growth, NCI panel, 48 h
The test system of assay [1] is ACHN renal.
The test system of assay [2] is BT-549 breast.
Assay [3] concerns HCT-15 colon.
Assay [4] has as its system MDA-MB-231 breast.
In assay [5] the test system is MDA-MB-435.
For assay [6], the system named is NCI-H226 lung.
For assay [7], the system named is RXF 393 renal.
The test system of assay [8] is SF-268 CNS.
Assay [9] concerns SR leukemia.
Assay [10] has as its system UO-31 renal.

With `Sc1ccc2ccccc2c1CNCc1ccccc1`, the TGI in assay [1] is 57.9 µM; in assay [2], 48.7 µM; in [3], 88.6 µM; in [4], 43.9 µM; in assay [5], 29.9 µM; in assay [6], 12.3 µM. The TGI was 26 µM in assay [7], 30.3 µM in assay [8], 15.4 µM in assay [9] and 26.9 µM in [10].
Take `COc1cc2c(F)nccc2cc1C(=O)N[C@@H](c1ccc(F)c(Cl)c1)[C@@H]1C[C@@H](O)CN1`: the GI50 was 9.59 µM in assay [1]; 0.487 µM in assay [2]; 0.838 µM in assay [3]; 11.3 µM in [4]; 2 µM in assay [5]; 5.99 µM in [6]. Further, the GI50 is 0.0362 µM in [7], 3.64 µM in [8] and 0.491 µM in assay [10]. The TGI amounted to 22.3 µM in assay [1]; 4.81 µM in assay [2]; 16.4 µM in assay [3]; 25 µM in assay [4]; 17 µM in assay [5]; 24.4 µM in assay [6]. In addition, the TGI in assay [7] is 0.268 µM; in [8], 21.6 µM; in [9], greater than 41.9 µM; in assay [10], 15.4 µM.
Take `CCN1C(=O)N(CC)C2C1NN=c1s/c(=C\c3ccccc3F)c(=O)n12` (centres undefined): the GI50 in [1] is 0.0522 µM; in assay [2] it was 0.0358 µM; in assay [3] it was 0.0316 µM; in assay [4], 0.0457 µM; in [5], 0.0148 µM; in assay [6], 11.2 µM. In addition, the GI50 was 0.0224 µM in assay [7], 0.0679 µM in [8], 0.0278 µM in assay [9] and 0.17 µM in assay [10]. Besides, the TGI in assay [1] is greater than 100 µM; in assay [2], greater than 93.3 µM; in assay [3] it was greater than 100 µM; in [4], greater than 84.6 µM; in [5] it was 0.052 µM; in [6], greater than 100 µM. Besides, the TGI was 1.36 µM in assay [7], greater than 67.4 µM in [8], greater than 74.7 µM in assay [9] and greater than 69.4 µM in [10].
Regarding `Cc1cc(C(=O)Nc2nc3cccc(Cl)c3n2[C@@H]2CCCCN(C(=O)/C=C/CN(C)C)C2)ccn1`, the GI50 in assay [1] is 0.406 µM; in assay [2], 7.26 µM; in assay [3], 4.42 µM; in [4], 13 µM; in [5], 9.49 µM; in assay [6], 16.3 µM. Also, the GI50 is 9.35 µM in assay [7], 10.6 µM in assay [8], 11.3 µM in assay [9] and 2.71 µM in assay [10]. Also, the TGI in [1] was found to be 16.3 µM; in [2], 20.9 µM; in assay [3] it was 19.7 µM; in assay [4] it was 28.1 µM; in assay [5], 23.3 µM; in [6] it was 32.1 µM. Moreover, the TGI in assay [7] was 25.1 µM; in [8] it was 28.3 µM; in [9], 35.5 µM; in [10] it was 20.3 µM.
Take `CC(C)CCSC1=CC(=O)c2ccccc2C1=O`: the GI50 in assay [1] was 1.84 µM; in [2], 1.33 µM; in [3], 6.61 µM; in [4], 1.36 µM; in assay [5], 3.88 µM; in [6], 6.82 µM. The GI50 in assay [7] was 5.06 µM; in assay [8] it was 6.66 µM; in [9], 0.0506 µM; in [10], 0.627 µM. Further, the TGI was 5.69 µM in assay [1]; 21.3 µM in assay [2]; 19.1 µM in assay [3]; 3.5 µM in [4]; 13.8 µM in assay [5]; 32.8 µM in assay [6]. Also, the TGI in [7] stood at 16.3 µM; in assay [8] it was 23.8 µM; in [9] it was 0.616 µM; in [10], 4.18 µM.
In the case of `CCN(CC)c1ccc(C2CC(c3cc(OC)c(OC)c(OC)c3)=NN2)cc1` (centres undefined), the GI50 is 1.55 µM in assay [1]; 1.03 µM in assay [2]; 0.597 µM in assay [3]; 0.513 µM in [4]; 0.404 µM in assay [5]; 4.48 µM in assay [6]. The GI50 in [8] is 0.797 µM; in assay [9] it was 0.286 µM; in [10], 1.5 µM. Moreover, the TGI in assay [1] was greater than 100 µM; in assay [2], greater than 22.9 µM; in assay [3], greater than 100 µM; in assay [4], 69.2 µM; in assay [5], greater than 100 µM; in assay [6] it was greater than 29.7 µM. Also, the TGI in [8] is greater than 100 µM; in [9] it was 1.73 µM; in [10] it was greater than 100 µM.
On to `CCc1c2c(nc3cc4c(c(N)c13)OCO4)-c1cc3c(c(=O)n1C2)COC(=O)[C@]3(O)CC`, for which the GI50 in [1] is less than 0.001 µM; in [2] it was less than 0.001 µM; in [3] it was 0.277 µM and 0.178 µM; in [4], 0.0246 µM and 0.0488 µM; in assay [5], 0.0241 µM and 0.0796 µM; in assay [6] it was less than 0.001 µM. Further, the GI50 is 0.0188 µM and 0.043 µM in [7]; 0.00128 µM in [10]. Besides, the TGI was 0.412 µM in assay [1]; 4.39 µM in assay [2]; greater than 100 µM in [3]; greater than 100 µM in assay [4]; 2.01 µM and 1.96 µM in assay [5]; 0.202 µM in assay [6]. Besides, the TGI in assay [7] is 0.44 µM and 0.382 µM; in assay [8] it was 15.2 µM; in assay [9], greater than 100 µM; in [10], 0.153 µM.
With `CC(C)CC1C(=O)N2CCC[C@H]2C2(O)O[C@](NC(=O)C3C=C4c5cccc6[nH]c(Br)c(c56)C[C@H]4N(C)C3)(C(C)C)C(=O)N12` (some centres undefined), the GI50 is 8.9 µM in assay [1]; 11.7 µM in [2]; 7.05 µM in [3]; 16.7 µM in assay [5]; 11.3 µM in assay [6]; 4.87 µM in [7]. In addition, the GI50 in [8] is 9.02 µM; in assay [9], 33.7 µM; in assay [10], 2.02 µM. The TGI in assay [1], in [2], in assay [3], in assay [4], in [5] and in assay [6] was greater than 100 µM each time. Also, the TGI in assay [7], in assay [8], in assay [9] and in [10] was greater than 100 µM in each case.
